Reference: ChEMBL document CHEMBL3091347, “Comparison of Multiple Linear Regressions and Neural Networks based QSAR models for the design of new antitubercular compounds” (Eur J Med Chem, 2013)
In brackets after ≈: the same amount, converted by molar mass.

Key:
[1] = tested on: Mycobacterium tuberculosis; experiment: Antitubercular activity against Mycobacterium tuberculosis BCG; assay type: functional
[2] = Lipophilicity, log P of the compound; conditions: octanol/water
[3] = tested on: Mycobacterium tuberculosis; experiment: Antitubercular activity against Mycobacterium tuberculosis; assay type: functional; conditions: for MIC: Mycobacterium tuberculosis

SMILES | MIC [1] | log(1/MIC) [1] | logP ([2]; logP) | logP [2] | log(1/MIC) [3] | MIC [3]
NNC(=O)c1ccc(Br)cc1 | 12 µg/mL (≈ 55.8 µM) | -1.079 | 0.018 | – | – | –
NNC(=O)c1ccc(O)cc1 | 12 µg/mL (≈ 78.9 µM) | -1.079 | – | -1.51 | – | –
CCN(CC)c1cc(C(=O)NN)ccn1 | – | – | -0.546 | – | -2.17 | 149 µg/mL (≈ 717 µM)
CCCCCC/C=N/NC(=O)c1ccncc1 | 0.03 µg/mL (≈ 0.129 µM) | 1.523 | 0.719 | – | – | –
NNC(=O)c1cnccn1 [PYRAZINE CARBOXYLIC ACID HYDRAZIDE] | 1.5 µg/mL (≈ 10.9 µM) | -0.1761 | -2.87 | – | – | –
CC1CCC(=NNC(=O)c2ccncc2)CC1 (stereo unspecified) | 0.07 µg/mL (≈ 0.303 µM) | 1.1549 | 0.315 | – | – | –
Cn1cncc1C(=O)NN | 300 µg/mL (≈ 2140 µM) | -2.477 | -2.55 | – | – | –
O=C(N/N=C(\CO)C(O)C(O)C(O)CO)c1ccncc1 (stereo unspecified) | 0.06 µg/mL (≈ 0.2 µM) | 1.222 | – | – | – | –
CC(=O)Nc1ccc(/C=N\NC(=O)c2ccco2)cc1 | 4.5 µg/mL (≈ 16.6 µM) | -0.6532 | 2.64 | – | – | –
Cc1ccc(C)n1NC(=O)c1ccco1 | 15 µg/mL (≈ 73.4 µM) | -1.176 | 3.04 | – | – | –
Cc1ccc(C)n1NC(=O)c1cccs1 | 40 µg/mL (≈ 182 µM) | -1.602 | 1.98 | – | – | –
CCCCC/C(C)=N\NC(=O)c1cccs1 | 3 µg/mL (≈ 12.6 µM) | -0.4771 | 1.71 | – | – | –
NNC(=O)c1nc2ccccc2s1 | 8 µg/mL (≈ 41.4 µM) | -0.9031 | -1.08 | – | – | –
COc1cc(C(=O)NN)ccc1O | 30 µg/mL (≈ 165 µM) | -1.477 | -1.79 | – | – | –
O=C(NN=C1CCCCC1)c1cccs1 | 3 µg/mL (≈ 13.5 µM) | -0.4771 | 0.789 | – | – | –
NNC(=O)C1CCNCC1 | 600 µg/mL (≈ 4190 µM) | -2.778 | -3.46 | – | – | –
NNC(=O)c1ccccc1N | 30 µg/mL (≈ 198 µM) | -1.477 | -2.07 | – | – | –
NNC(=O)c1ccc(Br)o1 | 12 µg/mL (≈ 58.5 µM) | -1.079 | 1.62 | – | – | –
NNC(=O)c1ccc(C(=O)NN)cc1 | 3 µg/mL (≈ 15.4 µM) | -0.4771 | -3.83 | – | – | –
NNC(=O)/C=C/C(=O)NN | – | – | – | – | -1.9 | 80 µg/mL (≈ 555 µM)
Cc1c(C(=O)NN)sc(C(=O)NN)c1C | 30 µg/mL (≈ 131 µM) | -1.477 | – | -2.888 | – | –
CCCCCCCCCCCCNNC(=O)c1ccncc1 | 0.05 µg/mL (≈ 0.164 µM) | 1.301 | 3.64 | – | – | –

SMILES | MIC [1] | log(1/MIC) [1] | logP ([2]; logP) | logP [2] | log(1/MIC) [3] | MIC [3]
NNC(=O)c1csc(N)n1 | 3 µg/mL (≈ 19 µM) | -0.4771 | -2.69 | – | – | –
O=CNNC(=O)c1ccncc1 | 3 µg/mL (≈ 18.2 µM) | -0.4771 | -2.99 | – | – | –
O=C(NNS(=O)(=O)c1ccccc1)c1ccncc1 | 3 µg/mL (≈ 10.8 µM) | -0.4771 | -1.29 | – | – | –
N/N=C(\CC(=O)c1ccncc1)C(=O)c1ccncc1 | 15 µg/mL (≈ 55.9 µM) | -1.176 | -3.16 | – | – | –
CN(C)c1ccc(C(=O)NN)cc1 | 6 µg/mL (≈ 33.5 µM) | -0.7782 | -0.65 | – | – | –
CC(=O)C/C(C)=N/NC(=O)c1ccncc1 | 0.8 µg/mL (≈ 3.65 µM) | 0.09691 | -3.02 | – | – | –
NNC(=O)CCCCCCCCCCC(=O)NN | 3 µg/mL (≈ 11.6 µM) | -0.4771 | -2.03 | – | – | –
O=C(N/N=C/C(O)C(O)C(O)CO)c1ccncc1 (stereo unspecified) | 0.05 µg/mL (≈ 0.186 µM) | 1.301 | – | -5.33 | – | –
NNC(=O)C1Cc2ccccc2O1 (stereo unspecified) | 22.5 µg/mL (≈ 126 µM) | -1.352 | -1.32 | – | – | –
CC(=O)Nc1ccc(/C=N\NC(=O)c2ccncc2)cc1 | 0.08 µg/mL (≈ 0.283 µM) | 1.097 | 0.457 | – | – | –
NNC(=O)c1cc2ccccc2o1 | 2 µg/mL (≈ 11.4 µM) | -0.301 | 0.835 | – | – | –
CC(=O)NN | 150 µg/mL (≈ 2020 µM) | -2.176 | -2.78 | – | – | –
CC(C)(C#N)NNC(=O)c1ccco1 | 3 µg/mL (≈ 15.5 µM) | -0.4771 | 1.21 | – | – | –
CC(C)(C#N)NNC(=O)c1cccs1 | 3 µg/mL (≈ 14.3 µM) | -0.4771 | 0.147 | – | – | –
NNC(=O)c1ccc(N)cc1 | 6 µg/mL (≈ 39.7 µM) | -0.7782 | – | -2.07 | – | –
CC(C)/C=N/NC(=O)c1cccs1 | 1.2 µg/mL (≈ 6.11 µM) | -0.07918 | 0.125 | – | – | –
CC(C)=NNC(=O)c1ccco1 | 4 µg/mL (≈ 24.1 µM) | -0.6021 | 0.656 | – | – | –
NNC(=O)CCC(=O)NN | 25 µg/mL (≈ 171 µM) | -1.398 | – | – | – | –
CC(=O)N1CCC(C(=O)NN)CC1 | 6 µg/mL (≈ 32.4 µM) | -0.7782 | -3.98 | – | – | –
NNC(=O)c1ccc(C(=O)NN)o1 | 6 µg/mL (≈ 32.6 µM) | -0.7782 | -1.63 | – | – | –
NNC(=O)Cc1cc2ccccc2[nH]1 | 60 µg/mL (≈ 317 µM) | -1.778 | -1.61 | – | – | –
